From paper PMC1716192, “A Plant-Derived Morphinan as a Novel Lead Compound Active against Malaria Liver Stages” (PLoS Medicine, 2006) come the findings set out here.

This assay relates to P. yoelii liver stage parasites (18S rRNA). Put plainly: Real-time PCR quantification of P. yoelii parasites in mouse livers. The class given is in vivo, Swiss mice. To be noted: 42 h PI. Here is the method:
Female 6-wk-old Swiss mice weighing 24–31 g were randomly allotted to three groups. The drug to be tested was administrated orally on days −1, 0, and +1. Group 1 received 100 mg/kg/d of NCP-tazopsine (n = 4), group 2 received 200 mg/kg/d of NCP-tazopsine (n = 6), whereas the control group received Tween 80 at 10% in sterile water (n = 5). Mice were challenged on day 0 by retro-orbital injection with 120,000 P. yoelii sporozoites and sacrificed 42-h postinoculation. A piece of liver (0.2 g) was harvested and total RNA extracted using the Micro to Midi kit (Invitrogen) according to the manufacturer's instructions. The detection and quantification of liver stage parasites were done as described with minor modifications. Five micrograms of total RNA were treated with DNase from the Turbo DNA-free kit (Ambion, Huntingdon, United Kingdom) and reverse transcribed by Superscript II (Invitrogen) according to the manufacturer's instructions. A total of 6 μl of the 300 μl obtained (an equivalent to 100 ng of the starting total RNA) were used per TaqMan PCR assay (MX4000 multiplex quantitative PCR system; Stratagene, La Jolla, California, United States). […] Lack of nonspecific amplification with mouse genomic DNA was determined in preliminary experiment (unpublished data). […] Absolute transcript copy number for each gene was calculated based on their external standard curves. […]
Background: In qPCR the cycle at which signal appears reflects the starting amount.

On to `COC1=C2[C@@H]3[C@H](O)c4ccc(OC)c(O)c4[C@]2(CCN3C2CCCC2)C[C@H](O)[C@@H]1O` [NCP-tazopsine, N-cyclopentyl-tazopsine], for which the “reduction of liver parasite load versus controls” value was found to be 99.98% (fully protective dose (200 mg/kg/d oral), 120,000 sporozoites) and 98.58% (suboptimal dose (100 mg/kg/d oral), 120,000 sporozoites).
